Measurements as given in ChEMBL document CHEMBL1201862, “PubChem BioAssay data set” (2004).
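Step 1: Grow cells in 96-well plates. Step 2: Expose to compound for 48 hours at 5 concentrations. Step 3: Interpolate endpoints linearly; if unreached, use highest concentration. GI50: concentration for 50% inhibition of growth.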 Calls of active or inactive are those of the source. No stated cut-off is given here; in the data, active = GI50 up to about 1.1 µM and inactive = higher.

Key:
Test in all cases: inhibition of tumour cell growth, NCI panel, 48 h
[1] = test system: 786-0
[2] = test system: A498
[3] = test system: A549
[4] = test system: ACHN
[5] = test system: BT-549
[6] = test system: CAKI-1
[7] = test system: CCRF-CEM
[8] = test system: COLO 205
[9] = test system: DU-145
[10] = test system: EKVX
[11] = test system: HCC 2998
[12] = test system: HCT-116
[13] = test system: HCT-15
[14] = test system: HOP-62
[15] = test system: HOP-92
[16] = test system: HT-29
[17] = test system: Hs-578T
[18] = test system: IGROV-1
[19] = test system: K562
[20] = test system: KM12
[21] = test system: LOX IMVI
[22] = test system: M14
[23] = test system: MCF7
[24] = test system: MDA-MB-231
[25] = test system: MDA-MB-435
[26] = test system: MDA-N
[27] = test system: MOLT-4
[28] = test system: Malme-3M
[29] = test system: NCI-H226
[30] = test system: NCI-H23
[31] = test system: NCI-H460
[32] = test system: NCI-H522
[33] = test system: NCI/ADR-RES
[34] = test system: OVCAR-3
[35] = test system: OVCAR-4
[36] = test system: OVCAR-5
[37] = test system: OVCAR-8
[38] = test system: PC-3
[39] = test system: RPMI-8226
[40] = test system: SF-268
[41] = test system: SF-295
[42] = test system: SK-MEL-28
[43] = test system: SK-MEL-2
[44] = test system: SK-MEL-5
[45] = test system: SK-OV-3
[46] = test system: SN12C
[47] = test system: SNB-19
[48] = test system: SNB-75
[49] = test system: SR
[50] = test system: SW-620
[51] = test system: T47D
[52] = test system: TK-10
[53] = test system: U-251
[54] = test system: UACC-257
[55] = test system: UACC-62
[56] = test system: UO-31
[57] = test system: HL-60
[58] = test system: SF-539

For `COc1ccc(N2C(=O)C3c4[nH]c5ccccc5c4C4CCC(C(C)C)CC4C3C2=O)cc1` (centres undefined), the GI50 [1] was > 100 µM (inactive), the GI50 [2] was > 100 µM (inactive) and the GI50 [3] was > 100 µM (inactive). For the same compound, the GI50 [4] was > 100 µM (inactive), the GI50 [5] was > 100 µM (inactive) and the GI50 [6] was > 100 µM (inactive). For the same compound, the GI50 [7] was 0.343 µM (active), the GI50 [8] was > 100 µM (inactive) and the GI50 [9] was > 100 µM (inactive). For the same compound, the GI50 [10] was > 100 µM (inactive), the GI50 [11] was > 100 µM (inactive) and the GI50 [12] was > 100 µM (inactive). The GI50 [13] was greater than 100 µM, the GI50 [14] was 33 µM (inactive) and the GI50 [15] was > 100 µM (inactive). For the same compound, the GI50 [16] was > 100 µM (inactive), the GI50 [17] was 40.7 µM (inactive) and the GI50 [18] was > 100 µM (inactive). For the same compound, the GI50 [19] was > 100 µM (inactive), the GI50 [20] was > 100 µM (inactive) and the GI50 [21] was > 100 µM (inactive). The GI50 [22] was > 100 µM (inactive), the GI50 [23] was > 100 µM (inactive) and the GI50 [24] was > 100 µM (inactive). For the same compound, the GI50 [25] was > 100 µM (inactive), the GI50 [26] was > 100 µM (inactive) and the GI50 [27] was > 100 µM (inactive). For the same compound, the GI50 [28] was 42.9 µM (inactive), the GI50 [29] was > 100 µM (inactive) and the GI50 [30] was > 100 µM (inactive). The GI50 [31] was > 100 µM (inactive), the GI50 [32] was > 100 µM (inactive) and the GI50 [33] was > 100 µM (inactive). The GI50 [34] was > 100 µM (inactive), the GI50 [35] was > 100 µM (inactive) and the GI50 [36] was > 100 µM (inactive). The GI50 [37] was > 100 µM (inactive), the GI50 [38] was > 100 µM (inactive) and the GI50 [39] was > 100 µM (inactive). For the same compound, the GI50 [40] was > 100 µM (inactive), the GI50 [41] was 53 µM (inactive) and the GI50 [42] was > 100 µM (inactive). The GI50 [43] was > 100 µM (inactive), the GI50 [44] was > 100 µM (inactive) and the GI50 [45] was 37.6 µM (inactive). The GI50 [46] was > 100 µM (inactive), the GI50 [47] was > 100 µM (inactive) and the GI50 [48] was 35.2 µM (inactive). For the same compound, the GI50 [49] was 40.7 µM (inactive), the GI50 [50] was > 100 µM (inactive) and the GI50 [51] was > 100 µM (inactive). The GI50 [52] was > 100 µM (inactive), the GI50 [53] was 38.8 µM (inactive) and the GI50 [54] was > 100 µM (inactive). The GI50 [55] was > 100 µM (inactive) and the GI50 [56] was > 100 µM (inactive).
In the case of `O=c1[nH]c(=O)n2n1C1C=CC2CC1`, the GI50 [1] is reported as > 100 µM (inactive), the GI50 [2] is reported as > 100 µM (inactive) and the GI50 [3] is reported as > 100 µM (inactive). For the same compound, the GI50 [4] was > 100 µM (inactive), the GI50 [5] was > 100 µM (inactive) and the GI50 [6] was > 100 µM (inactive). The GI50 [7] was > 100 µM (inactive), the GI50 [8] was > 100 µM (inactive) and the GI50 [9] was > 100 µM (inactive). For the same compound, the GI50 [10] was > 100 µM (inactive), the GI50 [12] was > 100 µM (inactive) and the GI50 [13] was greater than 100 µM. The GI50 [57] was > 100 µM (inactive), the GI50 [14] was > 100 µM (inactive) and the GI50 [15] was > 100 µM (inactive). The GI50 [16] was > 100 µM (inactive), the GI50 [17] was > 100 µM (inactive) and the GI50 [18] was > 100 µM (inactive). For the same compound, the GI50 [19] was > 100 µM (inactive), the GI50 [20] was > 100 µM (inactive) and the GI50 [21] was > 100 µM (inactive). The GI50 [22] was > 100 µM (inactive), the GI50 [23] was > 100 µM (inactive) and the GI50 [24] was > 100 µM (inactive). For the same compound, the GI50 [25] was > 100 µM (inactive), the GI50 [26] was > 100 µM (inactive) and the GI50 [27] was > 100 µM (inactive). For the same compound, the GI50 [29] was > 100 µM (inactive), the GI50 [30] was > 100 µM (inactive) and the GI50 [31] was > 100 µM (inactive). The GI50 [33] was > 100 µM (inactive), the GI50 [34] was > 100 µM (inactive) and the GI50 [36] was > 100 µM (inactive). The GI50 [37] was > 100 µM (inactive), the GI50 [38] was > 100 µM (inactive) and the GI50 [39] was > 100 µM (inactive). The GI50 [40] was > 100 µM (inactive), the GI50 [41] was > 100 µM (inactive) and the GI50 [58] was > 100 µM (inactive). For the same compound, the GI50 [42] was > 100 µM (inactive), the GI50 [43] was > 100 µM (inactive) and the GI50 [44] was > 100 µM (inactive). The GI50 [45] was > 100 µM (inactive), the GI50 [46] was > 100 µM (inactive) and the GI50 [47] was > 100 µM (inactive). For the same compound, the GI50 [48] was > 100 µM (inactive), the GI50 [49] was > 100 µM (inactive) and the GI50 [50] was > 100 µM (inactive). The GI50 [51] was > 100 µM (inactive), the GI50 [52] was > 100 µM (inactive) and the GI50 [53] was > 100 µM (inactive). For the same compound, the GI50 [54] was > 100 µM (inactive), the GI50 [55] was > 100 µM (inactive) and the GI50 [56] was > 100 µM (inactive).
For `O=Cc1c2n(c3ccccc13)N[C@@](Cc1ccc(O)cc1)(C(=O)O)C2`, the GI50 [1] was 89.1 µM (inactive), the GI50 [2] was > 100 µM (inactive) and the GI50 [3] was > 100 µM (inactive). The GI50 [4] was 62.7 µM (inactive), the GI50 [5] was > 100 µM (inactive) and the GI50 [6] was > 100 µM (inactive). For the same compound, the GI50 [7] was 34.5 µM (inactive), the GI50 [8] was > 100 µM (inactive) and the GI50 [9] was > 100 µM (inactive). The GI50 [10] was > 100 µM (inactive), the GI50 [12] was 38.3 µM (inactive) and the GI50 [13] was 47.3 µM. The GI50 [57] was 47.1 µM (inactive), the GI50 [14] was 46.7 µM (inactive) and the GI50 [15] was > 100 µM (inactive). The GI50 [16] was > 100 µM (inactive), the GI50 [17] was > 100 µM (inactive) and the GI50 [18] was > 100 µM (inactive). For the same compound, the GI50 [19] was 97.3 µM (inactive), the GI50 [20] was > 100 µM (inactive) and the GI50 [21] was 55.2 µM (inactive). The GI50 [22] was 65.6 µM (inactive), the GI50 [23] was 55.5 µM (inactive) and the GI50 [24] was > 100 µM (inactive). The GI50 [25] was > 100 µM (inactive), the GI50 [26] was > 100 µM (inactive) and the GI50 [27] was 60.3 µM (inactive). The GI50 [28] was 60.3 µM (inactive), the GI50 [29] was > 100 µM (inactive) and the GI50 [30] was > 100 µM (inactive). For the same compound, the GI50 [32] was 25.5 µM (inactive), the GI50 [33] was 35.9 µM (inactive) and the GI50 [34] was 19.5 µM (inactive). The GI50 [35] was 68.7 µM (inactive), the GI50 [36] was > 100 µM (inactive) and the GI50 [37] was > 100 µM (inactive). For the same compound, the GI50 [38] was 81.7 µM (inactive), the GI50 [39] was > 100 µM (inactive) and the GI50 [40] was 36 µM (inactive). For the same compound, the GI50 [41] was 63.2 µM (inactive), the GI50 [58] was > 100 µM (inactive) and the GI50 [42] was > 100 µM (inactive). The GI50 [43] was > 100 µM (inactive), the GI50 [44] was > 100 µM (inactive) and the GI50 [45] was 77.3 µM (inactive). For the same compound, the GI50 [47] was > 100 µM (inactive), the GI50 [49] was 38.1 µM (inactive) and the GI50 [50] was 56.8 µM (inactive). The GI50 [51] was 82.4 µM (inactive), the GI50 [52] was > 100 µM (inactive) and the GI50 [53] was > 100 µM (inactive). The GI50 [54] was 31 µM (inactive), the GI50 [55] was > 100 µM (inactive) and the GI50 [56] was > 100 µM (inactive).
